Measurements from patent US10676829B2, “Corrosion inhibition composition for pipelines, process of elaboration and synthesis” (INSTITUTO MEXICANO DEL PETROLEO, priority 2013, dated 2020).

Assay: Corrosion inhibition efficiency by electrochemical impedance spectroscopy (EIS), three-electrode cell
Conditions: 40° C., 3 hours
Protocol: Evaluation Using Electrochemical Impedance Spectroscopy (EIS)
The evaluation of corrosion inhibiting properties of the individual structures and binary compositions was carried out in a conventional electrochemical cell (E) with a three electrode arrangement as the one shown in FIG. 1. This cell allows maintaining stirring and constant temperature during development of measurement.
The inhibiting formulations to be evaluated are added in the desired concentration in the test solution (D), whereas a stirring of 2000 rpm and a temperature of 40° C. are maintained. […] The system is maintained under stirring and constant temperature for 3 hours.
After 3 hours, the electrochemical impedance spectrum is obtained in a range of 10 kHz and 10 mHz frequency and the resistance related to corrosion and together with that obtained in an identical experiment but only with the test solution was obtained from this spectrum; the corrosion inhibition efficiency was calculated.

[1] = test water SP1, concentration 50 mg/L
[2] = test water SP1, concentration 500 mg/L
[3] = test water SP1, concentration 2500 mg/L

SMILES: CCCCCCNCn1nnc2ccccc21 [BZC6, N-(1H-benzotriazole-1-methyl)-hexane-1-amine]
- Inhibition efficiency % [1]: 18.2%
- Inhibition efficiency % [2]: 35.3%
- Inhibition efficiency % [3]: 73.7%

SMILES: CCCCCCCCCCCCN=Cc1c[nH]cn1 [IMC12, N-[1H-imidazole-(4-methylidene)]-dodecane-1-amine]
- Inhibition efficiency % [1]: 23.1%
- Inhibition efficiency % [2]: 80.9%
- Inhibition efficiency % [3]: 95.4%

SMILES: CCCCCCCCCCCCCCN=Cc1c[nH]cn1 [IMC14, N-[1H-imidazole-(4-methylidene)]-tetradecane-1-amine]
- Inhibition efficiency % [1]: 19.8%
- Inhibition efficiency % [2]: 78.9%
- Inhibition efficiency % [3]: 98.0%

SMILES: CCCCn1cc[n+](C)c1.[Br-] [MIMC4, 1-butyl-3-methylimidazolium bromide]
- Inhibition efficiency % [1]: 15.2%
- Inhibition efficiency % [2]: 61.9%
- Inhibition efficiency % [3]: 76.0%
